In US5582814A, “1-(p-n-butylbenzyl) DTPA for magnetic resonance imaging” (Metasyn, Inc., priority 1994, dated 1996):

How the values were obtained:
[1] = Relaxivity in rat liver cytosol; format: biochemical; conditions: 20 MHz, 37° C.; Gd(III) complexes in rat liver cytosol
Protocol: The relaxivity of the Gd(III) complexes in cytosol was measured at 37 ° C. using a Bruker 20MHz Minispec equipped with a variable temperature probe. The inversion-recovery pulse sequence with 10 data points was used for T1 measurements. 1/T1 relaxation rates of solutions with varying concentrations of the chelates (0.01-0.5 mM) were determined. The limiting slope of the 1/T1 vs concentration plot at low concentrations of the chelates in units of s^-1 mM^-1 was taken as the relaxivity (R1) of the chelate in cytosol.
Higher relaxivity values imply higher binding affinity to cytosolic proteins and/or greater relaxivity when bound.

[2] = 1/T1 relaxation rates of excised rat liver; format: in vivo, Sprague Dawley rat; conditions: 50 μmol/kg tail vein, 20 MHz, 37° C.
Protocol: Rats (approx. 3 per time period) were euthanized by cervical dislocation (while anesthetized by CO2) at 1, 5 and 30 min. post-injection. […] The percentage of the injected dose (% ID) in the liver was determined for each time point and the integrated area under the mean liver % ID time curve (AUC) was calculated.
For the 5 min. time period, the 1/T1 proton relaxation rate of the excised liver was measured at 20MHz and 37° C. as described above. Higher 1/T1 values are associated with greater MRI signal intensity on T1 -weighted images and are due to greater liver uptake of the agent and/or greater relaxivity in the microenvironments of the liver.

[3] = Rat liver uptake of 153Gd-labeled chelates; format: in vivo, Sprague Dawley rat; conditions: 50 μmol/kg tail vein
Protocol: Un-anesthetized adult male Sprague Dawley rats (200-300 g) were injected in the tail vein with 50 μmol/kg of gadolinium chelate labeled with ^153 Gd. Rats (approx. 3 per time period) were euthanized by cervical dislocation (while anesthetized by CO2) at 1, 5 and 30 min. post-injection. The liver was analyzed for ^153 Gd concentration using a gamma counter. The percentage of the injected dose (% ID) in the liver was determined for each time point and the integrated area under the mean liver % ID time curve (AUC) was calculated.

[4] = in vivo
Protocol: Anesthetized (pentobarbital, 35 mg/kg, ip.) adult rabbits (2.5-4 kg) were administered 50 μmol/kg of a ^153 Gd-labeled chelate (approximately30 μCi/kg) via a cannulated marginal ear vein. Rabbits (1 per compound) were positioned supine under a gamma camera set with a photo peak energy of 100 keV +/- 20% and equipped with a low energy parallel hole collimator. Immediately after chelate administration, dynamic planar whole body scintigraphy was performed every five minutes for at least one hour. Images were acquired in a 64×64 matrix, and region of interest (ROI) analysis was performed using the Image 1.52 software package (National Institutes of Health). Percent injected does (% ID) in the liver at 5 min. intervals was calculated by dividing the counts in the liver ROI by the total counts in the body.

[5] = Biliary excretion in monkeys; conditions: monkey, n = 2, 50 μmol/kg iv bolus
Protocol: Two adult male cynomolgus monkeys used for scintigraphic imaging were injected on different days with iv bolus of 50 μmol/kg of the chelates labeled with ^153 Gd (approximately 40 μCi/kg). Following completion of the imaging study, the animals were placed in metabolic cages and their total urine void and excreted feces were measured using a gamma counter at 24 and 48 hr post compound administration.

[6] = Liver and bile specificity relative to structurally similar contrast agents (summary statement); format: in vivo; conditions: relative to structurally similar contrast agents previously disclosed
Description: Thus, this invention provides a method for tissue-specific contrast enhancement of MR images of mammalian organs and tissues. In particular, the method allows for contrast enhancement of MR images of the hepatobiliary system. […] MS-264 can also be used for tissue-specific imaging of tumors and the blood pool.

Compound | R1 in liver cytosol (relaxivity) [1] [s⁻¹ mM⁻¹] | 1/T1 of excised rat liver 5 min. post-inj. [2] [s⁻¹] | Area under the % inj. dose in rat liver vs time curve (AUC) from 0 to 30 min [3] | Area under the % inj. dose in rabbit liver vs time curve (AUC) from 0 to 30 min [4] | % of recovered activity in feces (biliary excretion) of monkeys over 48 hr [5] [%] | liver and bile specificity [6]
O=C(O)CN(CCN(CC(=O)O)CC(CCc1ccccc1)N(CC(=O)O)CC(=O)O)CC(=O)O (centres unmarked) [1-(phenylethyl)] | 13.6 | – | – | – | – | –
CCOc1ccc(C[C@@H](CN(CCN(CC(=O)O)CC(=O)O)CC(=O)O)N(CC(=O)O)CC(=O)O)cc1 [1-(p-ethoxybenzyl)] | 14.4 | 10.1 ± 1.5 | 408 | 480 | 35 ± 3 | –
Cc1ccc(CC(CN(CCN(CC(=O)O)CC(=O)O)CC(=O)O)N(CC(=O)O)CC(=O)O)c(C)c1 (centres unmarked) [1-(2,4-di-Me-benzyl)] | 15.3 | 10.2 ± 0.6 | 404 | – | – | –
CCc1ccc(CC(CN(CCN(CC(=O)O)CC(=O)O)CC(=O)O)N(CC(=O)O)CC(=O)O)cc1 (centres unmarked) [1-(p-ethylbenzyl)] | 16.4 | 12.3 ± 0.9 | 469 | 553 | 48 ± 10 | –
diethylenetriamine pentaacetic acid [DTPA] | 7.1 | 4.64 ± 0.16 | 35 | – | – | –
O=C(O)CN(CCN(CC(=O)O)CC(=O)O)CCN(CC(=O)O)C(COCc1ccccc1)C(=O)O (centres unmarked) [BOPTA] | 11.3 | – | – | – | – | –
gadolinium(III)-1-(p-n-butylbenzyl)diethylenetriamine pentaacetate dimeglumine salt [MS-264] | 23.8 | 14.6 ± 0.2 | 491 | 1120 | – | surprisingly superior liver and bile specificity
CC(C)c1ccc(CC(CN(CCN(CC(=O)O)CC(=O)O)CC(=O)O)N(CC(=O)O)CC(=O)O)cc1 (centres unmarked) [1-(p-isopropylbenzyl)] | 18.7 | 10.9 ± 1.2 | 400 | 910 | – | –
O=C(O)CN(CCN(CC(=O)O)CC(Cc1ccccc1)N(CC(=O)O)CC(=O)O)CC(=O)O (centres unmarked) [1-(benzyl)] | 11.7 | – | 213 | – | – | –
